According to patent publication US20100056791A1, “Pyrazolopyridine carboxamide derivative and phosphodiesterase (pde) inhibitor containing the same” (priority 2006, published 2010):

Legend:
[1] = system: LPS-induced leukocytes in bronchoalveolar lavage fluid; test: LPS acute inflammation model in rats (total leukocytes in BALF); assay type: in vivo; details: 1 mg/kg orally one hour before LPS inhalation, total leukocytes in BALF 3 hours after LPS
Description: 1 mg/kg of the compounds were orally administered to rats one hour before inhalation of lipopolysaccharide (LPS) from E. coli serotype 055:B5, rats were inhaled nebulizing LPS solution (50 mL) by nebulizer for 30 minutes. Then, 3 hours after the LPS inhalation, the rats were euthanized with 20% urethane (5 ml/rat, i.p.). 5 ml of physiological saline for bronchoalveolar lavage was injected into the bronchial tubes and alveoli through the airway, and the bronchial tubes and alveoli were washed 3 times using a 5 mL syringe. This procedure was repeated twice, and the solution was collected as bronchoalveolar lavage fluid (BALF). The collected BALF was centrifuged at 1,200 rpm and […] for 10 minutes (Hirtachi; himac CR 5 DL). The sediment was re-suspended in 10 mL of a 0.1% bovine serum albumin-physiological saline, and an equivalent amount of Turk's solution was added to the suspension to stain leukocytes. The total number of leukocytes was counted under a microscope to determine the inhibition ratio. When the inhibition ratio≧60%, the results were represented by “++.” When 60%>the inhibition ratio≧50%, the results were represented by “+.”

[2] = system: histamine-induced bronchoconstriction; test: Histamine-induced airway contraction reaction in guinea pigs; assay type: in vivo; details: Cavia porcellus, iv, 0.5 min, i.v., 0.1 mg/kg administration (not in brackets), 30 seconds after administration, read-out: Inhibition ratio
Description: Guinea pigs were anesthetized with pentobarbital (30 mg/kg, i.p.). A cannula for intravenous administration, a cannula for collecting blood and measuring blood pressure, and a tracheal cannula were inserted into the left external jugular vein, right internal carotid artery, and trachea, respectively. The guinea pigs were maintained on artificial respiration under the conditions of 60 times/min and 10 mL/kg/stroke. The airflow from the side branch of the tracheal cannula was measured by a bronchospasm transducer (Ugo-Basile) and recorded on a computer via Power Lab (ADInstruments Japan). The guinea pigs were immobilized with gallamine (10 mg/kg, i.v.), and histamine was administered at 10-minute intervals (12.5 μg/kg, i.v.). […] We examined the inhibitory action of test compounds on histamine-induced bronchoconstriction 30 seconds after compounds administration. Bronchoconstriction was recorded as the amount of airflow, and the results were represented by the ratio of the maximum value of the histamine-induced airflow 30 seconds after the administration to the maximum value of the airflow before the administration. When the inhibition ratio≧90%, the results were represented by “+++.” When 90%>the inhibition ratio≧70%, the results were represented by “++.” When 70%>the inhibition ratio≧30%, the results were represented by “+.” The results shown in brackets are for 0.3 mg/kg administration, and the other results are for 0.1 mg/kg administration.

[3] = target: T1, PDE4B catalytic domain (PDE4Bcat) (Homo sapiens, UniProt Q07343); test: Phosphodiesterase inhibitory activity ([3H]cAMP breakdown, recombinant PDE4Bcat); assay type: biochemical; details: 30° C. 20 minutes, read-out: IC50(μmol/L) PDE4
T1 construct: The cDNA of PDE4B catalytic domain (hereinafter abbreviated as Cat) was isolated from human RNA by RT-PCR; made in house; host or cells: Sf9 insect cells (baculovirus, Gateway / Bac-to-Bac)
T1 sequence (Q07343 330-659 limits assumed): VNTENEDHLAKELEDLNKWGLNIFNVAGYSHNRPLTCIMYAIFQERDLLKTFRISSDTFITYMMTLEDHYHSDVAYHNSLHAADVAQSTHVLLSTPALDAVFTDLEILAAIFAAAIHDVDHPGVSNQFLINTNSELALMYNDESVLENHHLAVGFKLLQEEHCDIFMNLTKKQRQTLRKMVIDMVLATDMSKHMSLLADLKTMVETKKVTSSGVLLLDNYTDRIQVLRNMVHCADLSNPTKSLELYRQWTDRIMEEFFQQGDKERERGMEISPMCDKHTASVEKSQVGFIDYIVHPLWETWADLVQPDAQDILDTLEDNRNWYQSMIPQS
Source text: The cDNA of PDE4B catalytic domain (hereinafter abbreviated as Cat) was isolated from human RNA by RT-PCR. The isolated cDNA fragments were inserted into Sf9 insect cells using Gateway system (product of Invitrogen Corporation) and Bac-to-Bac (registered trademark) Baculovirus Expression system (product of Invitrogen Corporation) to express a target PDE protein. The recombinant PDE4Bcat was purified from the culture supernatants or cell extracts of Sf9 cells expressing high levels of the PDE protein by ion exchange chromatography and was used for the following experiments.
A 4 mmol/L solution of each test compound was serially diluted four-fold with a 15% DMSO solution to prepare solutions with concentrations of 15 nmol/L to 4 mmol/L (the final concentrations used in the experiments were 1.5 nmol/L to 400 μmol/L). 10 μL of the prepared test compound solutions, [3H] cAMP diluted with a buffer solution (40 mmol/L Tris-HCl (pH: 7.4), 10 mmol/L MgCl2), and 40 μL of the recombinant human PDE protein (2×10^−6 units, 1 unit is defined as the amount of PDE that breaks down 1 μmol/L of cAMP in one minute under the conditions of a pH of 7.5 and 30° C.) were added to a 96-well plate. The mixtures were reacted at 30° C. for 20 minutes. Then, the resultant mixtures were reacted at 65° C. for 2 minutes. Subsequently, 25 μL of 1 mg/mL5′-nucleotidase (Crotalus atrox venom, product of Sigma) was added to the mixtures, and the mixtures were reacted at 30° C. for 10 minutes. After completion of the reaction, 200 μL of a solution of Dowex (300 mg/mL Dowex 1×8-400 (product of Sigma Aldrich), 33% ethanol) was added to the mixtures, and the mixtures were shaken at 4° C. for 20 minutes. Subsequently, 200 μL of MicroScint 20 (product of Packard) was added to the mixtures, and measurement was performed using a scintillation counter (Topcount, product of Packard). IC50 values were calculated using Graph Pad Prism v3.03 (product of GraphPad Software). When […], the results were represented by “+.” When 0.1 μmol/L>the IC50 value, the results were represented by “++.”

Row | Structure (SMILES) | IC50 [3] [µmol/L] | Inhibition ratio [1] | inhibition in vivo at 0.1 mg/kg [2] [%]
1 | CCc1cc2c(C(=O)Nc3c(Cl)cncc3Cl)ccc(OC)n2n1 [Example 9, 2-Ethyl-7-methoxypyrazolo[1,5-a]pyridine-4-carboxylic acid (3,5-dichloropyridin-4-yl)amide] | < 0.1 | + (When 60%>the inhibition ratio≧50%, the results were represented by “+.”) | 70 to 90
2 | CSc1ccc(C(=O)Nc2c(Cl)cncc2Cl)c2cc(C(F)(F)F)nn12 [Example 92, 7-Methylsulfanyl-2-trifluoromethylpyrazolo[1,5-a]pyridine-4-carboxylic acid (3,5-dichloropyridin-4-yl)amide] | < 0.1 |  | 30 to 70
3 | O=C(Nc1c(Cl)cncc1Cl)c1ccc(CO)n2nc(C(F)(F)F)cc12 [Example 105, 7-Hydroxymethyl-2-trifluoromethylpyrazolo[1,5-a]pyridine-4-carboxylic acid (3,5-dichloropyridin-4-yl)amide] | < 0.1 |  | ≥ 90

Second part, led by results:

Row | IC50 [3] [µmol/L] | Structure (SMILES) | Inhibition ratio [1] | inhibition in vivo at 0.1 mg/kg [2] [%]
4 | < 0.1 | COc1ccc(C(=O)Nc2c(Cl)cncc2Cl)c2cc(C(F)(F)F)nn12 [Example 16, 7-Methoxy-2-trifluoromethylpyrazolo[1,5-a]pyridine-4-carboxylic acid (3,5-dichloropyridin-4-yl)amide] | ++ (When the inhibition ratio≧60%, the results were represented by “++.”) | ≥ 90
5 | < 0.1 | CC(O)c1ccc(C(=O)Nc2c(Cl)cncc2Cl)c2cc(C(F)(F)F)nn12 (stereo not shown) [Example 107, 7-(1-Hydroxyethyl)-2-trifluoromethylpyrazolo[1,5-a]pyridine-4-carboxylic acid (3,5-dichloropyridin-4-yl)amide] | + (When 60%>the inhibition ratio≧50%, the results were represented by “+.”) | 70 to 90
